Read-outs that look alike come from different tables or passages of the source.
Tests used:
HIV-1 protease = HIV-1 protease (Human immunodeficiency virus type 1 group M subtype B, UniProt P03369); test: biochemical
HIV-2 protease = target: T1, HIV-2 protease (Human immunodeficiency virus type 2 subtype A, UniProt P04584); test: biochemical; settings: 1M NaCl
T1 construct: the coding region of the 99-amino acid protease; made in house; host or cells: Saccharomyces cerevisiae strain AB110, plasmid pHIV2PR115
Experimental: The decapeptide was synthesized by conventional solid-state methods. Reactions were carried out and fractionated by HPLC. Conversion of the decapeptide to the two pentapeptides was quantitated by integration of the peak areas and comparison to product standard curves.
Enzymatic Inhibition. […] Each data point was done in triplicate and initial enzyme rates were fit to the Michaelis-Menten equation using a nonlinear regression program ("Enzfitter" from Biosoft).

[1] = HIV-1 Protease IC50 (μM) 1M NaCl
[2] = read-out: HIV-1 Protease IC50 (μM) 1M NaCl
[3] = HIV-1 Protease IC50 (μM) 1M NaCl, 1M NaCl

T1 sequence (P04584 514-612 limits assumed): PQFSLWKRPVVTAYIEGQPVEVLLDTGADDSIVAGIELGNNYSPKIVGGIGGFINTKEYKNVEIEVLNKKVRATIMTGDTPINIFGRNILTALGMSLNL

## O=C(CCCN1CCC(O)(c2ccccc2)CC1)c1ccc(F)cc1 [UCSF31, 4-(4-phenyl-4-hydroxypiperidinyl)-4'-fluorobutyrophenone]
HIV-1 protease
  HIV-1 Protease Therapeutic Index (LD50 /IC50): > 1.1
HIV-1 protease; [1]
  IC50: 230 µM
physchem
  solubility: > 250 µM
In vitro
  CC50 at 6 h: > 250 µM
HIV-2 protease
  IC50: 495 µM

## O=C(CCCN1CC=C(c2ccc(Cl)cc2)CC1)c1ccc(F)cc1 [UCSF11, 4-[4-(p-chlorophenyl)]-N-[4-(4'-fluorobutyrophenone)]-1,2,5,6-tetrahydropyridine]
HIV-1 protease; 1M NaCl
  IC50: 750 µM
HIV-1 protease; LD50/IC50
  HIV-1 Protease Therapeutic Index (LD50 /IC50): 0.3
physchem
  solubility: < 250 µM
In vitro
  CC50 at 6 h: 250 µM
HIV-2 protease
  IC50: 310 µM

## Cc1ccc(C(=O)CC(CN2CCC(O)(c3ccc(Cl)cc3)CC2)c2ccccc2)cc1 (stereo not shown) [UCSF43, 4-[4-(p-chlorophenyl)-4-hydroxypiperidinyl]-3-phenyl-4'-methylbutyrophenone]
HIV-1 protease
  HIV-1 Protease Therapeutic Index (LD50 /IC50): 7(1)
HIV-1 protease; [1]
  IC50: 50 µM
physchem
  solubility: > 500 µM
In vitro
  CC50 at 6 h: 350 µM
HIV-2 protease
  IC50: 27 µM

## OC1(c2ccc(Cl)cc2)CCN(CCCNCc2ccccc2)CC1 [UCSF55, 3-[4-(4-chlorophenyl)-4-hydroxypiperidinyl]-N-(benzyl)propylamine]
HIV-1 protease
  HIV-1 Protease Therapeutic Index (LD50 /IC50): < 0.02
HIV-1 protease; [1]
  IC50: 2500 µM
physchem
  solubility: > 500 µM
In vitro
  CC50 at 4 h: 60 µM
HIV-2 protease
  IC50: > 2500 µM

## OC1(c2ccc(Cl)cc2)CCN(CCCC(O)(Cc2ccccc2)c2ccc(F)cc2)CC1 (stereo not shown) [UCSF25]
HIV-1 protease
  HIV-1 Protease Therapeutic Index (LD50 /IC50): 0.2
HIV-1 protease; [1]
  IC50: 87 µM
In vitro
  CC50 at 6 h: 20 µM
HIV-2 protease
  IC50: 75 µM

## O=C(CCCN1CCC(O)(c2ccccc2)CC1)c1ccccc1 [UCSF34, 4-(4-phenyl-4-hydroxypiperidinyl)butyrophenone]
HIV-1 protease
  HIV-1 Protease Therapeutic Index (LD50 /IC50): > 1.25
HIV-1 protease; [1]
  IC50: 400 µM
physchem
  solubility: > 500 µM
In vitro
  CC50 at 6 h: > 500 µM
HIV-2 protease
  IC50: 288 µM

## C=CC(O)(CCCN1CCC(O)(c2ccc(Cl)cc2)CC1)c1ccc(F)cc1 (stereo not shown) [UCSF40, 6-[4-(4-chlorophenyl)-4-hydroxypiperidinyl]-3-(4-fluorophenyl)hex-1-en-3-ol]
HIV-1 protease
  HIV-1 Protease Therapeutic Index (LD50 /IC50): 1.25
HIV-1 protease; [1]
  IC50: 80 µM
physchem
  solubility: < 100 µM
In vitro
  CC50 at 6 h: 100 µM
HIV-2 protease
  IC50: 200 µM

## OC1(c2ccc(Cl)cc2)CCN(CCCC(O)(c2ccccc2)c2ccccc2-c2ccccc2)CC1 (stereo not shown) [UCSF56]
HIV-1 protease; [1]
  IC50: 20 µM
physchem
  solubility: < 500 µM
In vitro
  CC50 at 4 h: 20 µM
HIV-2 protease
  IC50: 11 µM

## OC1(c2ccc(Cl)cc2)CCN(CCCC2(c3ccc(F)cc3)OCCO2)CC1 [UCSF16, (1,2-ethyloxoacetal)-4-[4-(p-chlorophenyl)-4-hydroxypiperidinyl]-4'-fluorobutyrophenone]
HIV-1 protease
  HIV-1 Protease Therapeutic Index (LD50 /IC50): 2
HIV-1 protease; [2]
  IC50: 75 µM
physchem
  solubility: > 250 µM
In vitro
  CC50 at 6 h: 150 µM
HIV-2 protease; read-out: HIV-2 Protease IC50 (μM) 1M NaCl
  IC50: 238 µM

## O=C(CCCC1(O)CCC(O)(c2ccc(Cl)cc2)CC1)c1ccccc1 (stereo not shown) [UCSF45]
HIV-1 protease; [3]
  IC50: > 1000 µM

## ON=C(CCCN1CCC(O)(c2ccc(Cl)cc2)CC1)c1ccc(F)cc1 [UCSF4, 4-[4-(p-chlorophenyl)-4-hydroxypiperidinyl]-4'-fluorobutyrophenone oxime]
HIV-1 protease
  HIV-1 Protease Therapeutic Index (LD50 /IC50): 0.7
HIV-1 protease; [1]
  IC50: 100 µM
physchem
  solubility: > 250 µM
HIV-2 protease
  IC50: 116 µM

## COCCN(CCN1CCC(O)(c2ccc(Cl)cc2)CC1)Cc1ccccc1 [UCSF58, 2-[4-(4-chlorophenyl)-4-hydroxypiperidinyl]-N-benzyl-N-(2-methoxyethyl)ethylamine]
HIV-1 protease
  HIV-1 Protease Therapeutic Index (LD50 /IC50): < 0.3
HIV-1 protease; [1]
  IC50: 300 µM
physchem
  solubility: > 500 µM
In vitro
  CC50 at 4 h: 110 µM
HIV-2 protease
  IC50: 290 µM

## OC1(c2ccc(Cl)cc2)CCN(CCCC2(c3ccc(F)cc3)SCCCS2)CC1 [UCSF10, (1,3-propanethioacetal)-4-[4-(p-chlorophenyl)-4-hydroxypiperidinyl]-4'-fluorobutyrophenone]
HIV-1 protease
  HIV-1 Protease Therapeutic Index (LD50 /IC50): 2
HIV-1 protease; [1]
  IC50: 15 µM
physchem
  solubility: < 100 µM
In vitro
  CC50 at 6 h: 30 µM
HIV-2 protease
  IC50: 88 µM

## CC(=O)OC1(c2ccc(Cl)cc2)CCN(CCCC(=O)c2ccc(F)cc2)CC1 [UCSF6, 4-[4-(p-chlorophenyl)-4-acetoxypiperidinyl]-4'-fluorobutyrophenone]
HIV-1 protease; 1M NaCl
  IC50: 725 µM
HIV-1 protease; LD50/IC50
  HIV-1 Protease Therapeutic Index (LD50 /IC50): 0.3
physchem
  solubility: > 250 µM
In vitro
  CC50 at 6 h: 250 µM
HIV-2 protease
  IC50: 533 µM

## O=C(CCCN1CCC(c2ccccc2)CC1)c1ccc(F)cc1 [UCSF19]
HIV-1 protease; [3]
  IC50: 250 µM
HIV-2 protease
  IC50: 323 µM

## C[N+]1(CCCC(=O)c2ccc(F)cc2)CCC(O)(c2ccc(Cl)cc2)CC1 (stereo not shown) [UCSF5, 4-[4-(p-chlorophenyl)-4-hydroxy-N-methylpiperidinyl]-4'-fluorobutyrophenone]
HIV-1 protease
  HIV-1 Protease Therapeutic Index (LD50 /IC50): > 6.3
HIV-1 protease; [1]
  IC50: 79 µM
physchem
  solubility: > 250 µM
In vitro
  CC50 at 6 h: > 500 µM
HIV-2 protease
  IC50: > 1000 µM

## O=C(CCC[N+]1([O-])CCC(O)(c2ccc(Cl)cc2)CC1)c1ccc(F)cc1 (stereo not shown) [UCSF3, 4-[4-(p-chlorophenyl)-4-hydroxy-N-oxopiperidinyl]-4'-fluorobutyrophenone]
HIV-1 protease
  HIV-1 Protease Therapeutic Index (LD50 /IC50): > 2.5
HIV-1 protease; [1]
  IC50: 100 µM
physchem
  solubility: < 250 µM
In vitro
  CC50 at 6 h: > 500 µM
HIV-2 protease
  IC50: 135 µM

## O=C(CCCN1CCC(O)(c2ccc(Cl)cc2)CC1)c1ccccc1 [UCSF62]
HIV-1 protease; [1]
  IC50: 100 µM
physchem
  solubility: < 250 µM
In vitro
  CC50 at 6 h: 380 µM
HIV-2 protease
  IC50: 40 µM

## O=C(CCC[N+]1(CCc2ccccc2)CCC(O)(c2ccc(Cl)cc2)CC1)c1ccc(F)cc1 (stereo not shown) [UCSF15, 4-[4-(p-chlorophenyl)-4-hydroxy-[N-(2-phenyl)ethyl]piperidinyl]-4'-fluorobutyrophenone]
HIV-1 protease
  HIV-1 Protease Therapeutic Index (LD50 /IC50): 0.3
HIV-1 protease; [1]
  IC50: 150 µM
physchem
  solubility: > 250 µM
HIV-2 protease
  IC50: 250 µM

## O=C(CCCN1CCC(O)(c2ccc(Cl)cc2)CC1)c1ccc(-c2ccccc2)cc1 [UCSF36, 4-[4-(p-chlorophenyl)-4-hydroxypiperidinyl]-4'-phenylbutyrophenone]
HIV-1 protease
  HIV-1 Protease Therapeutic Index (LD50 /IC50): 1.4
HIV-1 protease; [1]
  IC50: 32 µM
physchem
  solubility: < 50 µM
In vitro
  CC50 at 6 h: 50 µM
HIV-2 protease
  IC50: 53 µM

## O=C(CCC[n+]1ccc(-c2ccc(Cl)cc2)cc1)c1ccc(F)cc1 [UCSF17, 4-[4-(p-chlorophenyl)l-N-[4-(4'-fluorobutyrophenone)]pyridinium bromide]
HIV-1 protease; 1M NaCl
  IC50: 1200 µM
HIV-1 protease; LD50/IC50
  HIV-1 Protease Therapeutic Index (LD50 /IC50): 0.4
physchem
  solubility: > 250 µM
In vitro
  CC50 at 6 h: 500 µM

## O=C(CCCN1CCC(O)(c2ccc(Cl)cc2)C(O)C1)c1ccc(F)cc1 (stereo not shown) [UCSF20, 4-[4-(p-chlorophenyl)-3,4-dihydroxypiperidinyl)-4'-fluorobutyrophenone]
HIV-1 protease
  HIV-1 Protease Therapeutic Index (LD50 /IC50): 0.26
HIV-1 protease; [1]
  IC50: 675 µM
physchem
  solubility: > 250 µM

## OC1(c2ccc(Cl)cc2)CCN(CCC[Si](c2ccccc2)(c2ccccc2)c2ccccc2)CC1 [UCSF47, (3-[4-(4-chlorophenyl)-4-hydroxypiperidinyl)-1-propyl)triphenylsilane]
HIV-1 protease
  HIV-1 Protease Therapeutic Index (LD50 /IC50): 0.2
HIV-1 protease; [1]
  IC50: 90 µM
physchem
  solubility: > 500 µM
In vitro
  CC50 at 6 h: 15 µM
HIV-2 protease
  IC50: 1.5 µM

## OC1(c2ccc(Cl)cc2)CCN(CCCC(O)(c2ccccc2)c2ccc(-c3ccccc3)cc2)CC1 (stereo not shown) [UCSF33, 4-[4-(p-chlorophenyl)-4-hydroxypiperidinyl)-1-phenyl-1-(p-phenylphenyl)-butan-1-ol]
HIV-1 protease
  HIV-1 Protease Therapeutic Index (LD50 /IC50): 1.4
HIV-1 protease; [1]
  IC50: 7 µM
physchem
  solubility: < 50 µM
In vitro
  CC50 at 6 h: 10 µM
HIV-2 protease
  IC50: 7 µM

## OC1(c2ccccc2)CCN(CCCC2(c3ccc(F)cc3)OCCO2)CC1 [UCSF28, (1,2-ethyloxoacetal)-4-(4-phenyl-4-hydroxypiperidinyl)-4'-fluorobutyrophenone]
HIV-1 protease
  HIV-1 Protease Therapeutic Index (LD50 /IC50): 1.2
HIV-1 protease; [1]
  IC50: 410 µM
physchem
  solubility: > 500 µM
In vitro
  CC50 at 6 h: > 500 µM

## NN=C(CCCN1CCC(O)(c2ccc(Cl)cc2)CC1)c1ccc(F)cc1 [UCSF7, 4-[4-(p-chlorophenyl)-4-hydroxypiperidinyl]-4'-fluorobutyrophenone hydrazone]
HIV-1 protease
  HIV-1 Protease Therapeutic Index (LD50 /IC50): 0.9
HIV-1 protease; [1]
  IC50: 100 µM
physchem
  solubility: > 250 µM
HIV-2 protease
  IC50: 200 µM

## OC1(c2ccccc2)CCN(CCCC(O)(c2ccccc2)c2ccc3ccccc3n2)CC1 (stereo not drawn) [UCSF32, 4-(4-phenyl-4-hydroxypiperidinyl)-1-phenyl-1-[α-(2-azanaphthyl)]-butan-1-ol]
HIV-1 protease
  HIV-1 Protease Therapeutic Index (LD50 /IC50): 0.4
HIV-1 protease; [1]
  IC50: 60 µM
In vitro
  CC50 at 6 h: 25 µM
HIV-2 protease
  IC50: 80 µM

## OCC1(c2ccccc2)CCN(CCCC2(c3ccc(F)cc3)OCCO2)CC1 [UCSF53]
HIV-1 protease; [1]
  IC50: > 2500 µM
physchem
  solubility: < 50 µM
In vitro
  CC50 at 6 h: 500 µM

## O=C(CCCN1CCC(O)(c2ccc(Cl)cc2)CC1)c1ccncc1 [UCSF35]
HIV-1 protease
  HIV-1 Protease Therapeutic Index (LD50 /IC50): > 0.8
HIV-1 protease; [2]
  IC50: 650 µM
physchem
  solubility: > 500 µM
In vitro
  CC50 at 6 h: > 500 µM

## O=C(CCCN1CCC(O)(c2ccccc2)CC1)c1ccc2ccccc2n1 [UCSF27]
HIV-1 protease
  HIV-1 Protease Therapeutic Index (LD50 /IC50): 2(1)
HIV-1 protease; [2]
  IC50: 198 µM
physchem
  solubility: < 200 µM
In vitro
  CC50 at 6 h: 400 µM

## Cc1ccc(C2(CCC(c3ccccc3)N3CCC(O)(c4ccc(Cl)cc4)CC3)SCCS2)cc1 (stereo not shown) [UCSF48]
HIV-1 protease
  inhibition of HIV-1 protease at the lower salt concentrations: Very little inhibition
  inhibition of HIV-1 protease compared with other compounds: slightly better inhibitor than USCF42 at 1M NaCl
HIV-1 protease; [1]
  IC50: 7 µM
HIV-2 protease
  IC50: 10 µM

## OC1(c2ccc(Cl)cc2)CCN(CCCC(O)(c2ccccc2)c2ccc(F)cc2)CC1 (stereo not shown) [UCSF24, 4-[4-(p-chlorophenyl)-4-hydroxypiperidinyl]-1-phenyl-1-(p-fluorophenyl)-butan-1-ol]
HIV-1 protease
  HIV-1 Protease Therapeutic Index (LD50 /IC50): 0.4
HIV-1 protease; [1]
  IC50: 62 µM
physchem
  solubility: > 200 µM
In vitro
  CC50 at 6 h: 25 µM

— patent US5583000A, “Protease-binding compounds and methods of use” (priority 1993, dated 1996)
